Molecular target: T1, human ferroportin (Homo sapiens, UniProt Q9NP59)
T1 construct: luciferase reporter (read with the Nano-Glo Luciferase Assay System); expressed in transfected cells; host or cells: CHO cells, stably transfected, expression induced with doxycycline
T1 sequence (Q9NP59 1-571): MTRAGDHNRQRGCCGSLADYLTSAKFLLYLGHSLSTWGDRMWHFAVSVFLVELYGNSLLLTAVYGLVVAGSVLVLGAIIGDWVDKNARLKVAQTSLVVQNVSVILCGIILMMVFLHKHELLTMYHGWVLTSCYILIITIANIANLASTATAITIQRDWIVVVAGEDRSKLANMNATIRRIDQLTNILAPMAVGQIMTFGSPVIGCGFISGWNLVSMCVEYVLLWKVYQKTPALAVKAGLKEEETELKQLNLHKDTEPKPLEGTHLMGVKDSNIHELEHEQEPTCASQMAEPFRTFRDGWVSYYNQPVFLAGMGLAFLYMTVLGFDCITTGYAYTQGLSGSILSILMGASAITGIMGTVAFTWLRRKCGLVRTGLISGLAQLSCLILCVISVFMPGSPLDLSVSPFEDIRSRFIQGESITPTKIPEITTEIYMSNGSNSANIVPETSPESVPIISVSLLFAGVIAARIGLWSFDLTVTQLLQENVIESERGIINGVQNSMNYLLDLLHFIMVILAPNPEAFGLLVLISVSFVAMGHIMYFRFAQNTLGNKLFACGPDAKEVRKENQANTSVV
Assay: Biological in-vitro ferroportin internalization assay (luciferase reporter)
Format: cell-based
Details: average pEC50; stably-transfected CHO cell line expressing human ferroportin tagged to a luciferase reporter; 6 h incubation with test compound
Outline: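 Read-out is Nano-Glo luciferase signal after 6 h compound exposure, with average pEC50 derived. Cells are a stable CHO line carrying luciferase-tagged human ferroportin, pre-loaded 24 h with ferric ammonium citrate and doxycycline-induced for 24 h.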

Row | SMILES | pEC50
1 | COc1ccnc(-c2nc3c(c(N(C)CC(=O)N[C@H](C)CO)n2)CCC3)c1 [Compound 458, N-[(2R)-1-hydroxypropan-2-yl]-2-{[2-(4-methoxypyridin-2-yl)-5H,6H,7H-cyclopenta[d]pyrimidin-4-yl](methyl)amino}acetamidede] | 7.3
2 | COc1ccc(NC(=O)CN(C)c2nc(-c3cc(OCCO)ccn3)nc3c2CCC3)nn1 [Compound 285, 2-({2-[4-(2-hydroxyethoxy)pyridin-2-yl]-5H,6H,7H-cyclopenta[d]pyrimidin-4-yl}(methyl)amino)-N-(6-methoxypyridazin-3-yl)acetamide] | 7.8
3 | CN(CC(=O)NC1(C(F)(F)F)CC1)c1nc(-c2cc(OCC(C)(C)N(C)C)ccn2)nc2c1CCC2 [Compound 423, 2-[(2-{4-[2-(dimethylamino)-2-methylpropoxy]pyridin-2-yl}-5H,6H,7H-cyclopenta[d]pyrimidin-4-yl)(methyl)amino]-N-[1-(trifluoromethyl)cyclopropyl]acetamide] | 7.7
4 | CN(Cc1ncnn1-c1cccc(F)c1)c1nc(-c2cc(OCCO)ccn2)nc2c1CCC2 [Compound 315, 2-({2-[4-({[1-(3-fluorophenyl)-1H-1,2,4-triazol-5-yl]methyl}(methyl)amino)-5H,6H,7H-cyclopenta[d]pyrimidin-2-yl]pyridin-4-yl}oxy)ethan-1-ol] | 6.8
5 | CN(CC(=O)N1CCCC1)c1nc(-c2cc(OCC(C)(C)O)ccn2)nc2c1CCC2 [Compound 420, 2-({2-[4-(2-hydroxy-2-methylpropoxy)pyridin-2-yl]-5H,6H,7H-cyclopenta[d]pyrimidin-4-yl}(methyl)amino)-1-(pyrrolidin-1-yl)ethan-1-one] | 8
6 | CN(CC(=O)NC(C)(C)C)c1nc(-c2cc(OC[C@H](O)CF)ccn2)nc2c1CCC2 [Compound 452, N-tert-butyl-2-[(2-{4-[(2S)-3-fluoro-2-hydroxypropoxy]pyridin-2-yl}-5H,6H,7H-cyclopenta[d]pyrimidin-4-yl)(methyl)amino]acetamide] | 8.4
7 | c1ccc(-c2nc3c(c(N4CCCc5ccccc54)n2)CCC3)nc1 [Compound 76, 1-[2-(pyridin-2-yl)-5H,6H,7H-cyclopenta[d]pyrimidin-4-yl]-1,2,3,4-tetrahydroquinoline] | 6
8 | CN(CC(=O)Nc1ccc(C2CC2)nc1)c1nc(-c2cc(OCCO)ccn2)nc2c1CCC2 [Compound 308, N-(6-cyclopropylpyridin-3-yl)-2-({2-[4-(2-hydroxyethoxy)pyridin-2-yl]-5H,6H,7H-cyclopenta[d]pyrimidin-4-yl}(methyl)amino)acetamide] | 8.1
9 | COc1ccnc(-c2nc3c(c(N(C)CC(=O)NC4(C)CCCC4)n2)CCC3)c1 [Compound 155, 2-{[2-(4-methoxypyridin-2-yl)-5H,6H,7H-cyclopenta[d]pyrimidin-4-yl](methyl)amino}-N-(1-methylcyclopentyl)acetamide] | 7.5
10 | CC(C)[C@H](C(=O)NC(C)(C)C)N(C)c1nc(-c2ccccn2)nc2c1CCC2 [Compound 114, (2R)—N-tert-butyl-3-methyl-2-{methyl[2-(pyridin-2-yl)-5H,6H,7H-cyclopenta[d]pyrimidin-4-yl]amino}butanamide] | 7.6
11 | CN(CC(=O)NC(C)(C)C)c1cc(-c2ncccn2)nc2c1CCC2 [Compound 67, N-tert-butyl-2-{methyl[2-(pyrimidin-2-yl)-5H,6H,7H-cyclopenta[b]pyridin-4-yl]amino}acetamide] | 6.6
12 | CN(CC(=O)N1CCCC1)c1nc(-c2cc(OCCO)ccn2)nc2c1CCC2 [Compound 354, 2-({2-[4-(2-hydroxyethoxy)pyridin-2-yl]-5H,6H,7H-cyclopenta[d]pyrimidin-4-yl}(methyl)amino)-1-(pyrrolidin-1-yl)ethan-1-one] | 7.7
13 | COc1ccnc(-c2nc3c(c(N(C)CC(=O)N[C@@H](C)CO)n2)CCC3)c1 [Compound 459, N-[(2S)-1-hydroxypropan-2-yl]-2-{[2-(4-methoxypyridin-2-yl)-5H,6H,7H-cyclopenta[d]pyrimidin-4-yl](methyl)amino}acetamide] | 7.3
